The source made the active and inactive calls. How the calls were made is not given here.
Test system: rodent carcinogenicity bioassays, tumor incidence
Assay: CCRIS carcinogenicity studies
Outline: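 Archive of carcinogenicity, mutagenicity, tumor promotion and tumor inhibition results drawn from journals, NCI reports and other sources, expert-reviewed; covers 1985-2011 and is no longer updated.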

SMILES: CO/N=C(/C(=O)OC)c1ccccc1COc1ccccc1C
- carcinogen call (Species: Mouse, Strain/Sex: Strain not specified by Department of Pesticide Regulation /Female (50/Group), Route: Oral, Dose: 0, 81, 400, 1662 mg/kg/day of 93.7-96.6% kresoxim-methyl in diet for 18 mo, study duration 18 mo, Dose: 0, 81, 400, 1662 mg/kg/day of 93.7-96.6% kresoxim-methyl in diet for 18 mo, study duration 18 mo): inactive; negative
- carcinogen call (Species: Mouse, Strain/Sex: Strain not specified by Department of Pesticide Regulation /Male (50/Group), Route: Oral, Dose: 0, 60, 304, 1305 mg/kg/day of 93.7-96.6% kresoxim-methyl in diet for 18 mo, study duration 18 mo, Dose: 0, 60, 304, 1305 mg/kg/day of 93.7-96.6% kresoxim-methyl in diet for 18 mo, study duration 18 mo): inactive; negative
- carcinogen call (Species: Rat, Strain/Sex: Wistar/Female (20/Group), Route: Oral, Dose: 0, 12, 48, 503, 985 mg/kg/day of 93.7-96.6% kresoxim-methyl in diet for 24 mo, study duration 24 mo, Dose: 0, 12, 48, 503, 985 mg/kg/day of 93.7-96.6% kresoxim-methyl in diet for 24 mo, study duration 24 mo, Tumor Site: Type of Lesion: Liver: hepatocellular carcinoma (1/20, 0/20, 2/20, 6/20, 6/20)): active; positive
- carcinogen call (Species: Rat, Strain/Sex: Wistar/Female (50/Group), Route: Oral, Dose: 0, 12, 47, 497, 1046 mg/kg/day of 93.7-96.6% kresoxim-methyl in diet for 24 mo, study duration 24 mo, Dose: 0, 12, 47, 497, 1046 mg/kg/day of 93.7-96.6% kresoxim-methyl in diet for 24 mo, study duration 24 mo, Tumor Site: Type of Lesion: Liver: hepatocellular carcinoma (1/50, 1/50, 2/50, 13/50, 16/50)): active; positive
- carcinogen call (Species: Rat, Strain/Sex: Wistar/Male (20/Group), Route: Oral, Dose: 0, 9, 36, 370, 746 mg/kg/day of 93.7-96.6% kresoxim-methyl in diet for 24 mo, study duration 24 mo, Dose: 0, 9, 36, 370, 746 mg/kg/day of 93.7-96.6% kresoxim-methyl in diet for 24 mo, study duration 24 mo, Tumor Site: Type of Lesion: Liver: hepatocellular carcinoma (0/20, 1/20, 1/20, 3/20, 8/20)): active; positive
- carcinogen call (Species: Rat, Strain/Sex: Wistar/Male (50/Group), Route: Oral, Dose: 0, 9, 36, 375, 770 mg/kg/day of 93.7-96.6% kresoxim-methyl in diet for 24 mo, study duration 24 mo, Dose: 0, 9, 36, 375, 770 mg/kg/day of 93.7-96.6% kresoxim-methyl in diet for 24 mo, study duration 24 mo, Tumor Site: Type of Lesion: Liver: hepatocellular carcinoma (7/50, 5/50, 2/50, 18/50, 11/50). Spleen: hemangiosarcoma (0/50, 0/50, 2/50, 2/50, 3/50)): active; positive

SMILES: Cc1ccc(N=Nc2c(O)c(S(=O)(=O)O)cc3cc(S(=O)(=O)O)ccc23)c(C)c1
- carcinogen call (Species: MOUSE, Route: ORAL, Tumor Site: Type of Lesion: LIVER): active; positive
- carcinogen call (Species: RAT, Route: ORAL, Tumor Site: Type of Lesion: LIVER): active; positive

SMILES: CCOc1ccc(NC(C)=O)cc1[N+](=O)[O-]
- carcinogen call (Species: MOUSE, Strain/Sex: B6C3F1/FEMALE, Route: ORAL, Dose: 0, 0.73, 1.46% OF DIET, TWA, Dose: 0, 0.73, 1.46% OF DIET, TWA): inactive; negative
- carcinogen call (Species: MOUSE, Strain/Sex: B6C3F1/MALE, Route: ORAL, Dose: 0, 0.73, 1.46% OF DIET, TWA, Dose: 0, 0.73, 1.46% OF DIET, TWA, Tumor Site: Type of Lesion: LIVER: HEPATOCELLULAR CARCINOMA OR ADENOMA): active; positive
- carcinogen call (Species: RAT, Strain/Sex: F344/FEMALE, Route: ORAL, Dose: 0, 0.18, 0.36% OF DIET, TWA, Dose: 0, 0.18, 0.36% OF DIET, TWA): inactive; negative
- carcinogen call (Species: RAT, Strain/Sex: F344/MALE, Route: ORAL, Dose: 0, 0.18, 0.36% OF DIET, TWA, Dose: 0, 0.18, 0.36% OF DIET, TWA): inactive; negative

SMILES: Nc1cccc(N)c1
- carcinogen call (Species: MOUSE, Strain/Sex: B6C3F1/FEMALE, Route: ORAL, Dose: 0, 0.02, 0.04% IN DRINKING WATER FOR 78 WK, TOTAL INTAKE 13.0, 22.9 G/KG (STUDY DURATION: 85 WK), Dose: 0, 0.02, 0.04% IN DRINKING WATER FOR 78 WK, TOTAL INTAKE 13.0, 22.9 G/KG (STUDY DURATION: 85 WK)): inactive; negative
- carcinogen call (Species: MOUSE, Strain/Sex: B6C3F1/MALE, Route: ORAL, Dose: 0, 0.02, 0.04% IN THE DRINKING WATER FOR 78 WK, TOTAL INTAKE 10.9, 21.0 G/KG BODY WEIGHT (STUDY DURATION: 85 WK), Dose: 0, 0.02, 0.04% IN THE DRINKING WATER FOR 78 WK, TOTAL INTAKE 10.9, 21.0 G/KG BODY WEIGHT (STUDY DURATION: 85 WK)): inactive; negative

SMILES: COCc1cnc(C2=NC(C)(C(C)C)C(=O)N2)c(C(=O)O)c1 (configuration not stated)
- carcinogen call (Species: Mouse, Strain/Sex: CD-1/Female (55/Group), Route: Oral, Dose: 0, 96, 664, 1348 mg/kg/day of 97.1% imazamox in diet for at least 18 mo, study duration at least 18 mo, Dose: 0, 96, 664, 1348 mg/kg/day of 97.1% imazamox in diet for at least 18 mo, study duration at least 18 mo): inactive; negative
- carcinogen call (Species: Mouse, Strain/Sex: CD-1/Male (55/Group), Route: Oral, Dose: 0, 73, 535, 1053 mg/kg/day of 97.1% imazamox in diet for at least 18 mo, study duration at least 18 mo, Dose: 0, 73, 535, 1053 mg/kg/day of 97.1% imazamox in diet for at least 18 mo, study duration at least 18 mo): inactive; negative
- carcinogen call (Species: Rat, Strain/Sex: Sprague-Dawley/Female (65/Group), Route: Oral, Dose: 0, 63, 626, 1284 mg/kg/day of 97.1% imazamox in diet for 24 mo, study duration 24 mo, Dose: 0, 63, 626, 1284 mg/kg/day of 97.1% imazamox in diet for 24 mo, study duration 24 mo): inactive; negative
- carcinogen call (Species: Rat, Strain/Sex: Sprague-Dawley/Male (65/Group), Route: Oral, Dose: 0, 52, 528, 1068 mg/kg/day of 97.1% imazamox in diet for 24 mo, study duration 24 mo, Dose: 0, 52, 528, 1068 mg/kg/day of 97.1% imazamox in diet for 24 mo, study duration 24 mo): inactive; negative

SMILES: Fc1cccc2ncccc12
- carcinogen call (Species: MOUSE, Strain/Sex: CD-1/FEMALE, Route: INTRAPERITONEAL, Dose: 0, 1.75 UMOL/MOUSE (TOTAL DOSE) ADMINISTERED DURING DAYS 1, 8, AND 15 OF LIFE (STUDY DURATION: 52 WK)): inactive; negative
- carcinogen call (Species: MOUSE, Strain/Sex: CD-1/MALE, Route: INTRAPERITONEAL, Dose: 0, 1.75 UMOL/MOUSE (TOTAL DOSE) ADMINISTERED DURING DAYS 1, 8, AND 15 OF LIFE (STUDY DURATION: 52 WK), Tumor Site: Type of Lesion: LIVER: CARCINOMA): active; positive

SMILES: O=[N+]([O-])C1=Cc2cccc3cccc(c23)O1
- carcinogen call (Species: RAT, Strain/Sex: WISTAR/MALE, Route: SUBCUTANEOUS, Dose: 0, 0.5 MG IN DMSO 1/WK FOR DURATION OF STUDY (TOTAL DOSE: 0; 19.5 MG) (STUDY DURATION: 271 D), Dose: 0, 0.5 MG IN DMSO 1/WK FOR DURATION OF STUDY (TOTAL DOSE: 0; 19.5 MG) (STUDY DURATION: 271 D), Tumor Site: Type of Lesion: INJECTION SITE: FIBROSARCOMA): active; positive

SMILES: NS(=O)(=O)c1cc2c(cc1Cl)NCNS2(=O)=O
- carcinogen call (Species: MOUSE, Strain/Sex: B6C3F1/FEMALE, Route: ORAL, Dose: 0, 2500, 5000 PPM IN FEED FOR 103-104 WK (STUDY DURATION: 106 WK), Dose: 0, 2500, 5000 PPM IN FEED FOR 103-104 WK (STUDY DURATION: 106 WK)): inactive; negative
- carcinogen call (Species: MOUSE, Strain/Sex: B6C3F1/MALE, Route: ORAL, Dose: 0, 2500, 5000 PPM IN FEED FOR 103-104 WK (STUDY DURATION: 106 WK), Dose: 0, 2500, 5000 PPM IN FEED FOR 103-104 WK (STUDY DURATION: 106 WK), Tumor Site: Type of Lesion: LIVER: HEPATOCELLULAR ADENOMA OR CARCINOMA): equivocal
- carcinogen call (Species: RAT, Strain/Sex: F344/FEMALE, Route: ORAL, Dose: 0, 0.1% IN DIET FOR 104 WK (STUDY DURATION: 130 WK)): inactive; negative
- carcinogen call (Species: RAT, Strain/Sex: F344/FEMALE, Route: ORAL, Dose: 0, 250, 500, 2000 PPM IN FEED FOR 105-106 WK (STUDY DURATION: 106 WK), Dose: 0, 250, 500, 2000 PPM IN FEED FOR 105-106 WK (STUDY DURATION: 106 WK)): inactive; negative
- carcinogen call (Species: RAT, Strain/Sex: F344/MALE, Route: ORAL, Dose: 0, 0.1% IN DIET FOR 104 WK (STUDY DURATION: 130 WK)): inactive; negative
- carcinogen call (Species: RAT, Strain/Sex: F344/MALE, Route: ORAL, Dose: 0, 250, 500, 2000 PPM IN FEED FOR 105-106 WK (STUDY DURATION: 106 WK), Dose: 0, 250, 500, 2000 PPM IN FEED FOR 105-106 WK (STUDY DURATION: 106 WK)): inactive; negative

SMILES: O[C@@H]1C=Cc2c(cc3ccc4cccc5ccc2c3c45)[C@H]1O
- carcinogen call (Species: FISH, Strain/Sex: RAINBOW TROUT/MALE,FEMALE, Route: INJECTION, Dose: 0, 0.5, 2, 5 UG INJECTED INTO NEWLY HATCHED SAC-FRY (STUDY DURATION: 9 MO), Dose: 0, 0.5, 2, 5 UG INJECTED INTO NEWLY HATCHED SAC-FRY (STUDY DURATION: 9 MO), Tumor Site: Type of Lesion: LIVER: TUMOR): active; positive

SMILES: Cc1ccc(Nc2ccc(O)c3c2C(=O)c2ccccc2C3=O)cc1
- carcinogen call (Species: MOUSE, Strain/Sex: SWISS-WEBSTER/FEMALE, Route: DERMAL, Dose: 0, 1% IN 0.1 ML 0.1% SODIUM LAURYL SULFATE 1/WK FOR 18 MO (STUDY DURATION: 18 MO)): inactive; negative
- carcinogen call (Species: MOUSE, Strain/Sex: SWISS-WEBSTER/MALE, Route: DERMAL, Dose: 0, 1% IN 0.1 ML 0.1% SODIUM LAURYL SULFATE 1/WK FOR 18 MO (STUDY DURATION: 18 MO)): inactive; negative

SMILES: CCCc1ccc2c(c1)OCO2
- carcinogen call (Species: MOUSE, Route: ORAL, Tumor Site: Type of Lesion: LIVER, LUNG): active; positive
- carcinogen call (Species: RAT, Route: ORAL, Tumor Site: Type of Lesion: ESOPHAGUS): active; positive

From PubChem BioAssay AID1259411 (Chemical Carcinogenesis Research Information System (CCRIS), 2018)
